We go through one molecule from patent publication US20080318992A1, “METHOD OF USING A PKC INHIBITOR TO REVERSE PREFRONTAL CORTICAL DECLINES” (YALE UNIVERSITY, priority 2007, published 2008).

Read-outs that look alike come from different tables or passages of the source.

The test system of data set [1] is rat medial prefrontal cortex. To be noted: systemic administration and infusions directly to the rat medial prefrontal cortex via implanted cannula; cited from earlier work.
The conditions of data set [2]: systemic administration; cited from earlier work.
In a further data set the test system is aged rhesus monkeys. In words: Spatial delayed response task (working memory) in aged rhesus monkeys. Type of data set: in vivo, rhesus monkeys (Macaca mulatta). To be noted: for delayed response performance: 1 h prior to testing. The source says:
Performance on this task is reliant upon the integrity of the dorsolateral prefrontal cortex (Goldman-Rakic, 1987) and is consistently impaired in aged rhesus monkey (Bartus, et al., 1978; Rapp and Amaral, 1989).
The present study used 13 aged female rhesus monkeys (Macaca mulatta) ranging in age from 18 to 35 years at the time of testing. Actual birthdates were not available for several of the wild-caught animals and ages were estimated based on health records, teeth, and known history; several had been in the Yale University colony for more than 15 years. Monkeys were individually housed and maintained on a diet of Purina monkey chow (St. Louis, Mo.) supplemented with fruit.
Animals were tested at the same time of day immediately prior to feeding. Highly palatable food rewards (e.g., peanuts, raisins, or chocolate chips) were utilized during testing to minimize the need for dietary regulation. Animals were tested twice a week with 3-4 days separating each test session (e.g., Monday and Thursday). Cognitive testing of monkeys occurred in a Wisconsin General Testing Apparatus (WGTA) situated in a sound-attenuating room. Background masking noise (60 dB, wideband) was used to minimize auditory distractions.
The monkeys were trained on the spatial delayed response task as described previously (Arnsten, A. F., et al., J. Neurosci. (1988) δ: 4287-4298). For the delayed response task, the animal watched as the experimenter baited one of several food-wells with a food reward. The number of food-wells varied from two to four wells, depending on the monkey's performance level and experience with the task. Care was taken by the experimenter to ensure that the animal attended the baiting procedure. After baiting, food-wells were covered with identical plaques, and an opaque screen was lowered between the animal and the food-wells for a specified delay. At the end of the delay, the screen was raised and the animal was allowed to choose. Reward was quasi-randomly distributed between the wells. Five delay lengths (referred to as delays A through E) were quasi-randomly distributed over 30 trials. The shortest of these delays was ˜2 s (the “0” s, A delay). The remaining delays were titrated for individual monkeys such that each monkey maintained a baseline performance of 60-73% correct. For example, the delays for one animal might be A=0, B=5, C=10, D=15, and E=20 s.
Data were analyzed by comparing performance following treatment using a one-way repeated-measures ANOVA. […] Values were represented as means±SEM. Linear relationships between treatment response at the optimal dose of CHEL and age of the monkey (years) were analyzed in 10 monkeys with known birthdates using Pearson's test. In all cases, an α level of 0.05 was considered statistically significant.
All animals received all treatments conditions, with at least 7 days between treatments. The order of treatment administration was quasi-randomized.

A further data set deals with aged rats. To be noted: for change in percent-correct from mean 2-day baseline: 45 min prior to testing, N=5 aged rats.

In the case of `COc1ccc2c(c[n+](C)c3c4cc5c(cc4ccc23)OCO5)c1OC` [CHEL, Chelerythrine], the “stress induced working memory impairments” value in data set [1] is “capable of reversing stress induced working memory impairments”. Further, the “working memory impairments following administration of cirazoline” value in data set [2] is given as “reverse working memory impairments”. Moreover, the “performance of 3 oldest monkeys better than 3 youngest monkeys” value in the data set with aged rhesus monkeys (0.3 μg/kg oral) is listed as above 20%. Moreover, the delayed response performance with aged rhesus monkeys (0.3 μg/kg oral, N=13 aged monkeys, p=0.013 vs vehicle) turned out to be 74.5±2.6 % correct; in the data set with aged rhesus monkeys (3.0 μg/kg oral, N=13, p=0.151 vs vehicle), 71.5±1.9 % correct; in the data set on aged rhesus monkeys (30.0 μg/kg oral, N=13, p=0.406 vs vehicle), 66.1±1.8%. Besides, the “spatial working memory performance 4 hours after oral administration” value in the data set on aged rhesus monkeys (0.3 ug/kg oral, 4 hrs after administration, p=0.012 compared to vehicle (FIG. 5)) is reported as “improved performance”. For the same molecule, the “performance of the 3 oldest monkeys” value in the data set on aged rhesus monkeys (0.3 μg/kg oral, 3 oldest monkeys, mean age 32.3 years) is reported as 85.6±4.4 % correct. The “performance of the 3 youngest aged monkeys” value in the data set on aged rhesus monkeys (0.3 μg/kg oral, 3 youngest aged monkeys, mean age 20.7 years) was 65.0±4.8 % correct. Further, the “spatial working memory performance at best dose” value with aged rhesus monkeys (individual best dose for all monkeys, oral, 4 hours, p=0.001 (FIG. 5)) is “reliably improved performance”. In the data set on aged rhesus monkeys (oral, even at high doses (150 ug/kg), 4 hours (FIG. 5)), the “serious deficits at high doses” value is “no serious deficits were found”. The “change in percent-correct from mean 2-day baseline” value came out at 8.6±5.4 % improvement in the data set on aged rats (0.3 mg/kg subcutaneous, p=0.691 vs vehicle) and 26±6.4 % improvement in the data set on aged rats (1.0 mg/kg subcutaneous, p=0.047 vs vehicle). In the data set with aged rats (0.3 or 1.0 mg/kg subcutaneous, data not shown), the “performance times (non-specific motor effects)” value was “performance times did not differ as a result of treatment”.
